Measured values from US6197751A, “Thymosin α1 promotes tissue repair, angiogenesis and cell migration” (The United States of America as represented by the …, priority 1998, dated 2001).
Ends that are not written are not given here.

Key:
[1] = test system: HT1080 cells (human fibrosarcoma cell line); assay: Boyden chamber migration, HT1080 cells; format: cell-based
Method: (§1) Human umbilical vein endothelial cells (HUVECs) were isolated from freshly delivered cords according to Jaffe et al. (J. Clin. Invest. 52: 2745, 1973) and grown on Nunclon dishes (Nunc, Denmark) in RPMI 1640 (Life Technologies, Gaithersburg, Md.) supplemented with 20% bovine calf serum (Hyclone Laboratories, Logan Utah), 100 U/ml penicillin/streptomycin (Life Technologies, Gaithersburg, Md.), 50 μg/ml gentamycin (Life Technologies, Gaithersburg, Md.), 2.7 μg/ml amphotericin B (fungizone)(Life Technologies, Gaithersburg, Md.), 5 U/ml sodium heparin (Fisher Scientific, Pittsburgh, Pa.) and 200 μg/ml endothelial cell growth supplement (ECGS) (Collaborative Research, Bedford, Mass.). Cells between passage 3 and 5 were used for all experiments. Human coronary artery endothelial cells (HCAECs) were grown on Nunclon dishes in the HUVEC media. Foreskin fibroblasts (Ffs) were grown in DMEM supplemented with 10% fetal bovine serum (Hyclone) on Falcon (Becton Dickinson, N.J.) dishes. HT1080 cells (human fibrosarcoma cell line) were grown in Falcon flasks in DMEM supplemented with 10% fetal bovine serum. Neutrophils were freshly isolated from buffy coats as previously reported (Kibbey et al., J. Cell Phys. 160:185, 1994). Human aortic smooth muscle cells (AOSMCs) were grown in smooth muscle cell media (Clonetics, San Diego, Calif.) on Nunclon dishes.
(§2) Several cell types were tested to determine if the migratory stimulation observed with Tα1 was specific. […] HUVEC migration assays were carried out in Boyden chambers using 12 ,m pore PVP free filters coated with either a 0.1 mg/ml or 0.05 mg/ml solution of collagen IV as previously reported (Malinda et al., FASEB J. 11:474, 1997). Each condition was assayed in triplicate wells at least three times unless indicated. HCAECs, AOSMCs, FFs, HT1080 cells and neutrophils were cultured or isolated and assayed for migration as previously reported (Malinda et al., FASEB J. 11:474, 1997).

Neutrophils = assay: Boyden chamber migration, neutrophils; format: cell-based; settings: for average number of cells that migrated ± SEM: Neutrophils
Method: as §1, §2

Monocytes = assay: Boyden chamber migration, monocytes; format: cell-based; settings: for average number of cells that migrated ± SEM: Monocytes
Method: [The procedure below names another cell line; the source lists this cell line under the same test.] as §2

HUVECs = assay: Tube formation assay on Matrigel; format: cell-based, human
Method: Migration and differentiation during angiogenesis can be studied in vitro using Matrigel, a basement membrane matrix on which HUVECs undergo capillary-like tube formation (Grant et al., J. Cell. Physiol. 153: 614, 1992; Kubota et al., J. Cell Biol. 107: 1589, 1988). The tube formation assay was performed according to Grant et al. (J. Cell. Physiol. 153:614, 1992) with the following modifications. Twenty-four well Nunclon plates were coated with 320 μl of Matrigel (10 mg/ml) and incubated at 37° C. for 30 min to promote gelling. 30,000 HUVECs were resuspended in growth media and added to each well with 1, 10, 100 and 1000 ng of synthetic Tα1, 20 and 200 μg/ml ECGS (a bovine brain extract that contains aFGF and bFGF and acts as a positive control) or media alone. The final serum concentrations were 10% or 5%. After 18 h, plates were fixed with Diff-Quik (Baxter Healthcare Corporation, McGraw Park, Ill.) and the length of the tubes was measured using an Olympus CK2 microscope with a 2× objective connected to a Javelin CCTV camera with a 3.3× coupler and NIH Image 1.57 software. Three random measurements of each of four wells at each culture condition were measured. Each experiment was repeated at least three times.

HUVEC [2] = assay: HUVEC migration in Boyden chamber assays; format: cell-based, human
Method: as §2

foreskin fibroblasts = assay: Boyden chamber migration, foreskin fibroblasts; format: cell-based; settings: for average number of cells that migrated ± SEM: FF
Method: as §1, §2

[3] = test system: human aortic smooth muscle cells; assay: Boyden chamber migration, aortic smooth muscle cells; format: cell-based; settings: for average number of cells that migrated ± SEM: AOSMC
Method: as §1, §2

[4] = test system: human coronary artery endothelial cells; assay: Boyden chamber migration, coronary artery endothelial cells; format: cell-based; settings: for average number of cells that migrated ± SEM: HCAEC
Method: as §1, §2

HUVEC [5] = assay: In vitro "scratch" wound closure assay; format: cell-based, human; settings: media alone 1%
Method: During angiogenesis the cells may be presented with a constant level of Tα1. The "scratch" wound closure assay was used to assess the potential effects of constant doses of Tα1 on cell migration. Confluent monolayers were "scratch" wounded using the tip of a universal blue pipette tip and rinsed with PBS. Tα1 (1, 10, 100, and 1000 ng/ml) or ECGS (200 μg/ml) was added to the wells in fresh media lacking ECGS but containing 10 mM thymidine to inhibit cell proliferation (Malinda et al., FASEB J. 11: 474, 1997). Antibody inhibition experiments were carried out as described above by wounding the cell monolayer and then adding either anti-Tα1 polyclonal antibody (1/25, 1/50 dilution) or pre-immune serum (1/25 dilution), or fresh media to the plate.

C57Bl/6N female mice = assay: Subcutaneous Matrigel plug assay; format: in vivo
Method: Since Tα1 enhanced HUVEC migration in vitro, experiments were performed to determine if Tα1 promoted cell migration and vessel formation in vivo. Endothelial cells invade and form vessels in Matrigel plugs containing angiogenic factors (Kibbey et al., J. Cell Phys. 160:185, 1994; Passaniti et al., Lab. Invest. 67: 519, 1992). […] Three random fields were collected and analyzed per plug in each of three experiments. […] Cells migrate into the plug from the area closest to the skin forming vessels (FIG. 5). Plugs containing Tα1 (FIGS. 5C and 5D) show many more cells than in the Matrigel alone (FIG. 5A). Cell morphology was similar to those in plugs containing 10 ng/ml of the positive control ECGS (FIG. 5B).

rats = assay: Full thickness punch biopsy wound healing; format: in vivo; settings: for reepithelization of the wound / collagen production (Masson's trichrome) / histology of dermis near dermal and epidermal junction: 8 day punch wounds; for wound healing compared to untreated wounds: rats
Method: Six full thickness 8 mm punch biopsy wounds were made on the dorsal surface of rats as previously reported (Bhartiya et al., J. Cell. Physiol. 150:312, 1992; Sihhu et al., J. Cell. Physiol. 169:108, 1996) and Tα1 was given topically at the time of wounding (5 μg in 50 μl) and again after 48 hr. Controls for the topical treatment received identical amounts of saline at the time of wounding and at 48 hr. Three rats in each group also received intraperitoneal injections at the time of wounding (60 μg in 300 μl) and again every other day. Controls for these animals received identical amounts of saline i.p. on the same injection schedule. At days 8 and 9 post-wounding, tissue was collected and fixed in 10% buffered formalin (i.p. n=18 samples; topical n=9 samples). The samples were sectioned and stained with H&E and Masson's Trichrome (American Histolabs, Gaithersburg, Md.).

## laminin [LN, reference compound]
[1]; HT1080, positive control 1 ug/ml
  average number of cells that migrated ± SEM: 661.2 ± 37
[1]; HT1080, positive control 5 ug/ml
  average number of cells that migrated ± SEM: 1136 ± 70.3

## FMLP [reference compound]
Neutrophils; positive control 10^-7 M
  average number of cells that migrated ± SEM: 1404.7 ± 58.2
Monocytes; positive control 10^-7 M
  average number of cells that migrated ± SEM: 74 ± 2.1

## thymosin α1 (SDAAVDTSSEITTKDLKEKKEVVEEAEN; not fully specified; ends and bridges not checked; UniProt P06454 2-29, looked up) [Tα1, 28 amino acid peptide which results from the cleavage of the N-terminal region of prothymosin α1]
HUVECs; 1 or 10 ng/ml Tα1, 5% serum
  tube formation: did not form tubes
HUVECs; 100 and 1000 ng/ml Tα1, 5% serum
  tube formation: formed highly organized tubes
HUVECs; 100 or 1000 ng/ml Tα1, 10% serum
  tube formation vs control cells: formed more tubes than control cells
HUVECs; 100 or 1000 ng/ml Tα1, 10% serum, 18 h, media alone 208 μm
  average length of tubes: 316-324 μm
HUVEC [2]; Tα1 in the lower wells, filters coated with collagen IV
  increase in HUVEC migration: 3-6 fold
HUVEC [2]; increasing Tα1 in lower well vs in upper and lower wells
  checkerboard assay, chemoattraction vs chemokinesis: More cells migrated along the concentration gradient of Tα1 in the lower well
Foreskin fibroblasts; Thymosin α1 1 ng/ml
  average number of cells that migrated ± SEM: 5 ± 0.4
Foreskin fibroblasts; Thymosin α1 10 ng/ml
  average number of cells that migrated ± SEM: 5 ± 0.4
Foreskin fibroblasts; Thymosin α1 100 ng/ml
  average number of cells that migrated ± SEM: 4.8 ± 0.7
Foreskin fibroblasts; Thymosin α1 1000 ng/ml
  average number of cells that migrated ± SEM: 5.2 ± 0.5
Foreskin fibroblasts; Foreskin fibroblasts
  migration toward Tα1: did not demonstrate any significant migration
[3]; Thymosin α1 1 ng/ml
  average number of cells that migrated ± SEM: 1 ± 0.3
[3]; Thymosin α1 10 ng/ml
  average number of cells that migrated ± SEM: 1 ± 0.4
[3]; Thymosin α1 100 ng/ml
  average number of cells that migrated ± SEM: 0.5 ± 0.5
[3]; Thymosin α1 1000 ng/ml
  average number of cells that migrated ± SEM: 1 ± 0.4
[3]; human aortic smooth muscle cells
  migration toward Tα1: did not demonstrate any significant migration
Neutrophils; Thymosin α1 1 ng/ml
  average number of cells that migrated ± SEM: 138.7
Neutrophils; Thymosin α1 10 ng/ml
  average number of cells that migrated ± SEM: 138.7 ± 20
Neutrophils; Thymosin α1 100 ng/ml
  average number of cells that migrated ± SEM: 149.3 ± 13.5
Neutrophils; Thymosin α1 1000 ng/ml
  average number of cells that migrated ± SEM: 149.3 ± 27
Neutrophils; neutrophils
  migration toward Tα1: did not demonstrate any significant migration
Monocytes; 100 ng/ml
  Monocyte migration: appeared to be inhibited
Monocytes; 1000 ng/ml of Tα1
  Monocyte migration: increased
Monocytes; Thymosin α1 100 ng/ml
  average number of cells that migrated ± SEM: 20 ± 5.4
Monocytes; Thymosin α1 1000 ng/ml
  average number of cells that migrated ± SEM: 80 ± 7.6
[4]; 1000 ng of Tα1
  increase in migration over media alone: 2 fold
[4]; 1-100 ng doses
  migration: Significant migration
[4]; Thymosin α1 1 ng/ml
  average number of cells that migrated ± SEM: 14 ± 0.3
[4]; Thymosin α1 10 ng/ml
  average number of cells that migrated ± SEM: 16 ± 0.5
[4]; Thymosin α1 100 ng/ml
  average number of cells that migrated ± SEM: 18 ± 0.4
[4]; Thymosin α1 1000 ng/ml
  average number of cells that migrated ± SEM: 21 ± 0.4
[1]; HT1080, Thymosin α1 1 ng/ml
  average number of cells that migrated ± SEM: 2.4 ± 0.8
[1]; HT1080, Thymosin α1 10 ng/ml
  average number of cells that migrated ± SEM: 1.8 ± 0.4
[1]; HT1080, Thymosin α1 100 ng/ml
  average number of cells that migrated ± SEM: 1.3 ± 0.7
[1]; HT1080, Thymosin α1 1000 ng/ml
  average number of cells that migrated ± SEM: 0.9 ± 0.4
[1]; HT1080 fibrosarcoma cells
  migration toward Tα1: did not demonstrate any significant migration
HUVEC [5]; 100 ng/ml Tα1, 2 h
  wound closure: 7%
HUVEC [5]; 1000 ng/ml Tα1, 2 h after wounding
  wound closure: 14%
C57Bl/6N female mice; 1 μg/ml and 500 μg/ml
  cell migration into plugs: a decrease in migration was observed
C57Bl/6N female mice; 5 μg/ml of Tα1
  cell migration and angiogenesis in vivo vs Matrigel alone: always significantly higher than Matrigel alone
rats; intraperitoneal on alternate days 60 μg/300 μl
  reepithelization of the wound: Complete reepithelization
rats; intraperitoneal, 60 μg in 300 μl every other day
  wound healing compared to untreated wounds: significantly accelerated wound healing
rats; intraperitoneal
  collagen production (Masson's trichrome): enhanced collagen production
  histology of dermis near dermal and epidermal junction: capillary ingrowth in granulation tissue and hypercellular dermis
rats; topical 5 μg/50 μl
  reepithelization of the wound: complete reepithelization of the wound with 2-3 layers of thick epidermis
rats; topical, 5 μg in 50 μl at wounding and after 48 hr
  wound healing compared to untreated wounds: significantly accelerated wound healing
rats; topical
  collagen production (Masson's trichrome): enhanced collagen production
  histology of dermis near dermal and epidermal junction: capillary ingrowth in granulation tissue and hypercellular dermis

## basic fibroblast growth factor [bFGF, reference compound]
Foreskin fibroblasts; positive control 10 ng/ml
  average number of cells that migrated ± SEM: 12.3 ± 0.3

B1: PDGF-BB: platelet derived growth factor B form, positive control (protein, UniProt P01127 82-190, looked up)
Platelet-derived growth …: SLGSLTIAEPAMIAECKTRTEVFEISRRLIDRTNANFLVWPPCVEVQRCSGCCNNRNVQCRPTQVQLRPVQVRKIEIVRKKPIFKKATVTLEDHLACKCETVAAARPVT
[3]; positive control 10 ng/ml
  average number of cells that migrated ± SEM: 36 ± 4.5
